Experimental data: US6440997B2, “−E-2-(3,4-dichlorocinnamyl)-1-cyclopropylmethylpiperidine, and its antidiarrhoeal use” (Warner-Lambert Company, priority 1997, dated 2002)

Experiments:
[1] = tested on: diarrhoea induced by Salmonella lipopolysaccharide (LPS); assay: Diarrhoea induced by Salmonella lipopolysaccharide (LPS) in mice; conditions: for Inhibition of diarrhoea (%): Salmonella LPS; for ED50: Salmonella, in Mus musculus, read-out: Inhibitory activity ED50, Salmonella LPS diarrhoea
[2] = tested on: diarrhoea induced by the thermostable toxin of E. coli; assay: Diarrhoea induced by the thermostable toxin of E. coli in mice; type: in vivo; conditions: Escherichia coli, po, p.o. 1 h before toxin 600 U/mouse p.o., faecal water at 120 min, read-out: Inhibitory activity ED50, E. coli toxin diarrhoea
Procedure: (§1) b)—diarrhoea induced by the thermostable toxin of E. coli: Nourished male NMRI mice (30-35 g) are weighed and placed in individual cages previously covered with white paper allowing the viewing of the faecal matter voided. The faeces are recovered as soon as voided and are brought together, by periods of 30 min, for 120 min. The faeces thus brought together are weighed before (fresh weight) and after (dry weight) drying at 120° C. for 24 h. The quantity of water present in the faeces is calculated as the difference (fresh weight—dry weight). The thermostable toxin of Escherichia coli (Sigma, E5763) is administered by the oral route at time zero at a dose of 600 U/mouse. The animals of the control batch receive, at time zero, an oral administration of saline. The administration of the test products is carried out by the oral route 1 h before the administration of the toxins.

[3] = tested on: diarrhoea induced by the A and B toxins of C. difficile; assay: Diarrhoea induced by the A and B toxins of C. difficile in mice; type: in vivo; conditions: Clostridioides difficile, po, p.o. 1 h before A and B toxins 6 ng/mouse p.o., faecal water at 120 min, read-out: Inhibitory activity ED50, C. difficile toxins diarrhoea
Procedure: as §1
c)—diarrhoea induced by the A and B toxins of C. difficile: the experimental protocol, the calculation and the expression of the results are identical to those described above. The A and B toxins of C. difficile are administered by the oral route at time zero at a dose of 6 ng/mouse.

transit = assay: Effect on the transit; type: in vivo; conditions: oral route, mice
[4] = tested on: intestinal secretion induced by cholera toxin; assay: animal or person; type: in vivo, rats; conditions: for ED50: Rattus norvegicus, read-out: Inhibition of intestinal secretion induced by cholera toxin: ED50
sigma receptors = sigma receptors (Rattus norvegicus, UniProt Q9R0C9); assay: Affinity for sigma receptors: displacement of (+)[3H]-SKF 10,047 from rat brain membrane preparation; conditions: σ affinity: IC50, displacement of (+)[3H]-SKF 10,047, rat brain membrane preparation
sigma receptors, sequence (Q9R0C9 whole entry): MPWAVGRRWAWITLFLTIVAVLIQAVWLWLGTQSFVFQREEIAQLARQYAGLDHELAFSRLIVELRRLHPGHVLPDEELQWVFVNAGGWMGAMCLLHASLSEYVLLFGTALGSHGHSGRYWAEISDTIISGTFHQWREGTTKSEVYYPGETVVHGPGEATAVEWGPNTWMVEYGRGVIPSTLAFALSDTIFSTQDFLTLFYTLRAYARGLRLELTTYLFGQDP

[5] = Toxicity study in mice by the oral route; type: in vivo
Procedure: In animals, the toxicity study was carried out in mice by the oral route. No mortality was noted up to the strongest dose studied, namely 300 mg/kg. No toxic symptoms were evident at doses lower than 100 mg/kg. Starting from this dose, symptoms were observed such as respiratory depression, trembling, convulsions, a state of prostration or of lethargy which were reversible in a lapse of time of 24 hours after treatment.

[6] = tested on: inflammatory diarrhoea caused by PGE2; conditions: cited from earlier work

C(=C\c1ccccc1)/CC1CCCCN1CC1CC1 (single isomer, unassigned; (-)) [Ex. 2A.3, (−)E-2-cinnamyl-1-cyclopropylmethyl-piperidine]
Inhibition of diarrhoea (%) ([1]; dose 0.00003 mg/kg p.o., mice, 3e-05 mg/kg): 45%
Inhibition of diarrhoea (%) ([1]; dose 0.0001 mg/kg p.o., mice): 65.8%
Inhibition of diarrhoea (%) ([1]; dose 0.001 mg/kg p.o., mice, 0.001 mg/kg): 36.8%

CN(C)C(=O)C(CCN1CCC(O)(c2ccc(Cl)cc2)CC1)(c1ccccc1)c1ccccc1 [loperamide]
ED50 [2]: 3.92 mg/kg
ED50 [1]: 0.37 mg/kg
ED50 [3]: 4.27 mg/kg

CC(=O)SCC(Cc1ccccc1)C(=O)NCC(=O)OCc1ccccc1 (stereo not drawn) [acetorphan]
ED50 [1]: 34 mg/kg

Clc1ccc(/C=C/CC2CCCCN2CC2CC2)cc1Cl (single isomer, unassigned; (-)) [eutomer (I), (−)E-2-(3,4-dichlorocinnamyl)-1-cyclopropylmethylpiperidine]
ED50 [2]: 0.019 mg/kg
Action on the transit (transit): without acting on the transit
ED50 [4]: 0.038 mg/kg
times more active than the racemate ([4]; rat, in vivo, po): ~50 times
ED50 [1]: 0.0056 mg/kg
Inhibition of diarrhoea (%) ([1]; dose 0.003 mg/kg p.o., mice, listed as compound of the invention, 0.003 mg/kg): 46.1%
Inhibition of diarrhoea (%) ([1]; dose 0.01 mg/kg p.o., mice): 59.7%
Inhibition of diarrhoea (%) ([1]; dose 0.03 mg/kg p.o., mice): 59.5%
Inhibition of diarrhoea (%) ([1]; dose 0.1 mg/kg p.o., mice): 69.5%
times more active than acetorphan ([1]; oral route, mice, diarrhoea caused by LPS): more than 6000 times
IC50 (sigma receptors): 17.9 nM
Dose up to which no mortality was noted (strongest dose studied) [5]: ≥ 300 mg/kg
Dose from which toxic symptoms were observed (none at lower doses) ([5]; respiratory depression, trembling, convulsions, prostration or lethargy, reversible in 24 hours): ≥ 100 mg/kg
ED50 [3]: < 0.001 mg/kg

CCC(C/C=C/c1ccccc1)(c1ccccc1)N(C)CC1CC1 (single isomer, unassigned; (+)) [igmesine, (+)-N-cyclopropylmethyl-N-methyldiphenyl-1,4-ethyl-1-buten-3-yl-1-amine]
Delay of the appearance of the diarrhoea ([6]; 30 mg/kg i.p., co-administered with PGE2, mice): approximately 15 min
Inhibitory effect on PGE2 diarrhoea by the oral route ([6]; 60 mg/kg oral route, mice): zero
ED50 [2]: 1.72 mg/kg
ED50 [1]: 0.42 mg/kg
ED50 [3]: 1.45 mg/kg

Clc1ccc(C=CCC2CCCCN2CC2CC2)cc1Cl (racemic) [(+/−) parent racemate, racemic E-2-(3,4-dichlorocinnamyl)-1-cyclopropylmethylpiperidine]
ED50 [2]: 0.077 mg/kg
ED50 [4]: 1.9 mg/kg
ED50 [1]: 0.038 mg/kg
IC50 (sigma receptors): 44.1 nM
ED50 [3]: 0.058 mg/kg

C(=C\c1ccccc1)/CC1CCCN1CC1CC1 (single isomer, unassigned; (-)) [Ex. 1.3, (−)E-2-cinnamyl-1-cyclopropylmethylpyrrolidine]
ED50 [1]: 0.002 mg/kg
Inhibition of diarrhoea (%) ([1]; dose 0.003 mg/kg p.o., mice, 0.003 mg/kg): 63.8%
Inhibition of diarrhoea (%) ([1]; dose 0.01 mg/kg p.o., mice): 78.8%
Inhibition of diarrhoea (%) ([1]; dose 0.03 mg/kg p.o., mice, 0.03 mg/kg): 46.7%

Clc1ccc(/C=C/CC2CCCCN2CC2CC2)cc1Cl (single isomer, unassigned; (+)) [(+)E-2-(3,4-dichlorocinnamyl)-1-cyclopropylmethylpiperidine]
IC50 (sigma receptors): 21.8 nM
